# Columns and labels:
# E. coli [1] = test: Minimal bactericidal time (MBT) at different contact times; format: cell-based; settings: 1000 active ppm H2O2 alone
# Protocol: (§1) The antimicrobial effectiveness of the compositions of the present invention was tested. In this experiment, the test organism was E. coli and the final bacterial concentrations was 10^6 to 10^7 cfu/ml. Inoculum was contacted with either the combinations of LAE/H2O2 or individual, at different active concentration levels for a contact time of 30 seconds or more. The aliquots of this contaminated solution is used for determinate the minimal bactericidal concentration (MBC) for kill bacteria in the aliquots at 30 sec. contact time. Table 1 summarizes the efficacy of each biocide and their blends, and the Synergy index of each combination. In the same condition the minimal bactericidal time (MBT) was also evaluate with a combination of LAE:H2O2 (1:10) at different contact time. The table 2 summarizes the minimal bactericidal time for each biocide and a blend.
# [2] = tested on: Bacillus subtilis (ATCC#19659) spores; test: Sporicidal activity, quantitative suspension test EN 13704:2002; format: cell-based
# Protocol: The sporicidal activity of a given product is defined by its capacity to reduce at least by 3 log (cfu/ml) the amount of Bacillus subtilis bacterial spores in suspension, in the conditions established in the method.
# The test organism in the form of a test suspension was prepared containing endospores from Bacillus subtilis (ATCC#19659). The endospores were specifically prepared from a culture grown on Nutrient agar, to which additional sporulation enhancements were added. Plates were harvested with sterile water and endospores were purified by repeated centrifugations and resuspensions in water. The final wash was in 70% w/w ethanol for 30 minutes, to ensure the death of all vegetative bacteria.
# B. subtilis spore = test: Spore germination inhibition in TSB with low concentration solution; format: cell-based, Bacillus subtilis; settings: low concentration solution (1:200 dilution); 30° C., 72 hours, visible growth
# Protocol: The spore contaminated media culture was then incubated at 30° C. for 72 hours for detect the germination of the spore by the presence of a visually detectable growth. Three replicates were completed per treatment.
# [3] = tested on: E. coli on raw chicken piece; test: Efficacy and residual growth inhibition on inoculated raw chicken pieces; format: cell-based
# Text: In the following example it is shown the residual effect of a combination of LAE/H2O2 compared with peracetic acid (PAA). The peracetic acid is often used in the food industry to sanitize food (fruit, vegetables, meat and poultry). The peracetic acid has a strong odor, is highly reactive and unstable when diluted and its use is limited to 80 ppm on food in the majority of countries worldwide regulation (e.g. US-FDA regulation 21CFR). For this example a solution of 200 ppm of lauric arginate with 1000 ppm of hydrogen peroxide is prepared and acidified to pH 2.5 using citric acid. The peracetic acid used is provided by Sigma-Aldrich.
# Raw chicken pieces of the same size and weight are first soaked in an inoculating solution containing E. coli and incubated 30 minutes at 30° C. to allow the adhesion of bacteria on the surfaces of the sample. All samples are then soaked in a disinfectant solution (LAE/H2O2 or PAA) or a control (water) for a period of 30 seconds followed by a drying period drip for 2 minutes. Three replicates were completed per treatment. After the treatment, the samples were submerged in a neutralizing growth medium (D/E Neutralizing Broth) to analyze the populations of E. coli after the treatment or stored at room temperature in a sterile bags 24 hours before analyzed for populations of E. coli.
# E. coli [4] = test: Minimal bactericidal concentration (MBC) at 30 sec. contact time; format: cell-based; settings: alone or in blend, 10^6 to 10^7 cfu/ml
# Protocol: as §1
# [5] = animal toxicological studies; cited from earlier work
structure (smiles),measurement,setting,value
"OO [Example H2O2, hydrogen peroxide]",MBT,E. coli [1],>5 min
same,Average Log 10 cfu/ml reduction after 10 minutes contact time,[2]; high concentration treatment solution (10% H2O2),>3 Log 10 cfu/ml
same,Spore germination inhibition activity,B. subtilis spore,No inhibition
"CC(=O)OO [PAA, peracetic acid]",Average Log10 cfu/sample 2 min. after treatment,"[3]; 30 seconds soak, 2 min drip drying, LAE/H2O2 200/1000 ppm pH 2.5",0.56 Log10 cfu/sample
same,Log10 reduction vs control 2 min. after treatment,"[3]; 30 seconds soak, LAE/H2O2 200/1000 ppm pH 2.5, PAA 80 ppm",3.81 Log10
same,Average Log10 cfu/sample 24 hours after treatment,"[3]; stored 24 hours at room temperature, LAE/H2O2 200/1000 ppm, PAA 80 ppm",2.51 Log10 cfu/sample
"CCCCCCCCCCCC(=O)N[C@@H](CCCN=C(N)N)C(=O)OCC [LAE, Lauric arginate ethyl ester]",MBC (active ppm) H2O2,E. coli [4]; H2O2 concentration for complete kill,5000 active ppm
same,MBC (active ppm) LAE,E. coli [4]; LAE concentration for complete kill,>350 active ppm
same,sporicidal activity,"[2]; LAE alone, result not shown",no significant difference with the control
same,systemic No Observable Adverse Effect Levels (NOAEL),[5],"15,000 mg/L"

# Source: patent publication US10136645B2, “Antimicrobial composition” (MicroBio Solutions Inc., priority 2015, dated 2018)
